Reference: PMC9132982, “Inhibitory role of proguanil on the growth of bladder cancer via enhancing EGFR degradation and inhibiting its downstream signaling pathway to induce autophagy” (Cell Death & Disease, 2022)

Target: epidermal growth factor receptor (EGFR) (Homo sapiens, UniProt P00533)
Assay: SPRi with photo-crosslinked immobilized proguanil capturing proteins from T24 cell lysate, identified by LC-MS; no Kd
Assay type: cell-based

Chain of epidermal growth factor receptor (EGFR) (P00533 25-1210): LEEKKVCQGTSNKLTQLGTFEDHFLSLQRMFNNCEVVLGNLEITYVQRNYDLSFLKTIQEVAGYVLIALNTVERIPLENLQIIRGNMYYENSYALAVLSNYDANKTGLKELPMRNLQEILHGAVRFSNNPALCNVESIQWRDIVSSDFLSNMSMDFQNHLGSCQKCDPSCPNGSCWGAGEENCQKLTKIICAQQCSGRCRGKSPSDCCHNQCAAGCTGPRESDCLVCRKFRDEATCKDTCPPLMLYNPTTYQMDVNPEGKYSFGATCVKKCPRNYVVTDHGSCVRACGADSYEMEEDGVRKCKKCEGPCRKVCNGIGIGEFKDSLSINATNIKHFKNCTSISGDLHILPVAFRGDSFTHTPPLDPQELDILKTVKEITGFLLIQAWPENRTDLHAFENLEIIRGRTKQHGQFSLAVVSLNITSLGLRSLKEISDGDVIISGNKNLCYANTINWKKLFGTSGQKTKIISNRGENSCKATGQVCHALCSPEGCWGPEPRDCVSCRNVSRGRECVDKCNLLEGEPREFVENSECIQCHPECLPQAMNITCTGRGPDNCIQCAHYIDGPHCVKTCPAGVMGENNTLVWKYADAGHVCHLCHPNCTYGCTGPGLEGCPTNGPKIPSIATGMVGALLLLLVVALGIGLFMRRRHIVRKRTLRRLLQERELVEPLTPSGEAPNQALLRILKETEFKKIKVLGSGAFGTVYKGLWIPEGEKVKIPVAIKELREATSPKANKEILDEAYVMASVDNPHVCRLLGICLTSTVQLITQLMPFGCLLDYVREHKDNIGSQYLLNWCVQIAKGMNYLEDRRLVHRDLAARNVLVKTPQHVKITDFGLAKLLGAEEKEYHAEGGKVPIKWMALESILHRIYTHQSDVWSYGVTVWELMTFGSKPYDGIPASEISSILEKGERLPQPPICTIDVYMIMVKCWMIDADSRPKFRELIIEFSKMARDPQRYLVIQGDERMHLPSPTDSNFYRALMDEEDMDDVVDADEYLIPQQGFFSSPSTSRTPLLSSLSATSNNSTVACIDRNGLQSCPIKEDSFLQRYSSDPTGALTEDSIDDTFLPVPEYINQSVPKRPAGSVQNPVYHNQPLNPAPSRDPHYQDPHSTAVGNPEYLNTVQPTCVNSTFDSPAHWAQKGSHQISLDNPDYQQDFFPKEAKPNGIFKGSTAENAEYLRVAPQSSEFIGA

`[H]/N=C(\N/C(=N/[H])Nc1ccc(Cl)cc1)NC(C)C` [proguanil] was tested, and the “SPRi with photo-crosslinked immobilized proguanil capturing proteins from T24 ce” value was “surface plasmon resonance imaging (SPRi) experiments and found that proguanil strongly binds to EGFR (Fig. 1A)”.
